#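 GI50 = concentration required for 50% inhibition of growth. TGI: concentration producing complete growth inhibition.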
# What was measured:
# Test in all cases: NCI-60 cell line screen, 384-well format
# UACC-62 melanoma = tested on: UACC-62 melanoma
# NCI-H23 lung = tested on: NCI-H23 lung
# SW-620 colon = tested on: SW-620 colon
# UACC-257 melanoma = tested on: UACC-257 melanoma
# MALME-3M melanoma = tested on: MALME-3M melanoma
# IGROV1 ovarian = tested on: IGROV1 ovarian
# SK-OV-3 ovarian = tested on: SK-OV-3 ovarian
# A549 NSCLC = tested on: A549 NSCLC
# HL-60(TB) leukemia = tested on: HL-60(TB) leukemia
# SF-295 CNS = tested on: SF-295 CNS
# U251 glioblastoma = tested on: U251 glioblastoma
# SNB-75 CNS = tested on: SNB-75 CNS
# HOP-92 NSCLC = tested on: HOP-92 NSCLC
# HCT-116 colon = tested on: HCT-116 colon
# NCI-H460 NSCLC = tested on: NCI-H460 NSCLC
# UO-31 renal = tested on: UO-31 renal
# MCF7 breast = tested on: MCF7 breast
# MDA-MB-231 breast = tested on: MDA-MB-231 breast
# NCI-H322M lung = tested on: NCI-H322M lung
# NCI-H522 lung = tested on: NCI-H522 lung
# 786-0 renal = tested on: 786-0 renal
# RPMI-8226 leukemia = tested on: RPMI-8226 leukemia
# SNB-19 CNS = tested on: SNB-19 CNS
# A498 renal = tested on: A498 renal
# EKVX NSCLC = tested on: EKVX NSCLC
# MOLT-4 leukemia = tested on: MOLT-4 leukemia
# HT29 colon = tested on: HT29 colon
# COLO 205 colon = tested on: COLO 205 colon
# OVCAR-5 ovarian = tested on: OVCAR-5 ovarian
# HS 578T breast = tested on: HS 578T breast
# NCI/ADR-RES ovarian = tested on: NCI/ADR-RES ovarian
# OVCAR-3 ovarian = tested on: OVCAR-3 ovarian
# SF-268 CNS = tested on: SF-268 CNS
# SF-539 CNS = tested on: SF-539 CNS
# SK-MEL-28 melanoma = tested on: SK-MEL-28 melanoma
# SN12C renal = tested on: SN12C renal
# LOX IMVI melanoma = tested on: LOX IMVI melanoma
# SK-MEL-5 melanoma = tested on: SK-MEL-5 melanoma
# MDA-MB-468 breast = tested on: MDA-MB-468 breast
# HCT-15 colon = tested on: HCT-15 colon
# T-47D breast = tested on: T-47D breast
# BT-549 breast = tested on: BT-549 breast
# SR leukemia = tested on: SR leukemia
# KM12 colon = tested on: KM12 colon
# DU-145 prostate = tested on: DU-145 prostate
# RXF 393 renal = tested on: RXF 393 renal
# M14 melanoma = tested on: M14 melanoma
# MDA-MB-435 melanoma = tested on: MDA-MB-435 melanoma
# OVCAR-4 ovarian = tested on: OVCAR-4 ovarian
# ACHN renal = tested on: ACHN renal
# CCRF-CEM leukemia = tested on: CCRF-CEM leukemia
# SK-MEL-2 melanoma = tested on: SK-MEL-2 melanoma
# K-562 leukemia = tested on: K-562 leukemia
# PC-3 prostate = tested on: PC-3 prostate
# HOP-62 NSCLC = tested on: HOP-62 NSCLC
# HCC-2998 colon = tested on: HCC-2998 colon
# CAKI-1 renal = tested on: CAKI-1 renal
# TK-10 renal = tested on: TK-10 renal
# NCI-H226 lung = tested on: NCI-H226 lung
smiles,measurement,setting,value
O=C(Nc1ccccc1/C=C/c1n[nH]c2ccccc12)c1ccccc1,GI50,UACC-62 melanoma,1890 nM
same,TGI,UACC-62 melanoma,3940 nM
same,GI50,NCI-H23 lung,1160 nM
same,TGI,NCI-H23 lung,12400 nM
same,GI50,SW-620 colon,1870 nM
same,TGI,SW-620 colon,5300 nM
same,GI50,UACC-257 melanoma,1940 nM
same,TGI,UACC-257 melanoma,4300 nM
same,GI50,MALME-3M melanoma,1290 nM
same,TGI,MALME-3M melanoma,2680 nM
same,GI50,IGROV1 ovarian,5770 nM
same,TGI,IGROV1 ovarian,19600 nM
same,GI50,SK-OV-3 ovarian,2870 nM
same,TGI,SK-OV-3 ovarian,11600 nM
same,GI50,A549 NSCLC,1740 nM
same,TGI,A549 NSCLC,3390 nM
same,GI50,HL-60(TB) leukemia,538 nM
same,TGI,HL-60(TB) leukemia,1880 nM
same,GI50,SF-295 CNS,1630 nM
same,TGI,SF-295 CNS,3000 nM
same,GI50,U251 glioblastoma,1550 nM
same,TGI,U251 glioblastoma,2910 nM
same,GI50,SNB-75 CNS,2160 nM
same,TGI,SNB-75 CNS,4810 nM
same,GI50,HOP-92 NSCLC,1520 nM
same,TGI,HOP-92 NSCLC,5050 nM
same,GI50,HCT-116 colon,1490 nM
same,TGI,HCT-116 colon,2990 nM
same,GI50,NCI-H460 NSCLC,1480 nM
same,TGI,NCI-H460 NSCLC,2900 nM
same,GI50,UO-31 renal,10400 nM
same,TGI,UO-31 renal,22300 nM
same,GI50,MCF7 breast,514 nM
same,TGI,MCF7 breast,11400 nM
same,GI50,MDA-MB-231 breast,1480 nM
same,TGI,MDA-MB-231 breast,2990 nM
same,GI50,NCI-H322M lung,1840 nM
same,TGI,NCI-H322M lung,3970 nM
same,GI50,NCI-H522 lung,2360 nM
same,TGI,NCI-H522 lung,8590 nM
same,GI50,786-0 renal,1820 nM
same,TGI,786-0 renal,3310 nM
same,GI50,RPMI-8226 leukemia,1560 nM
same,TGI,RPMI-8226 leukemia,2970 nM
same,GI50,SNB-19 CNS,1980 nM
same,TGI,SNB-19 CNS,4380 nM
same,GI50,A498 renal,1840 nM
same,TGI,A498 renal,3310 nM
same,GI50,EKVX NSCLC,1430 nM
same,TGI,EKVX NSCLC,3940 nM
same,GI50,MOLT-4 leukemia,1650 nM
same,TGI,MOLT-4 leukemia,3350 nM
same,GI50,HT29 colon,1490 nM
same,TGI,HT29 colon,2850 nM
same,GI50,COLO 205 colon,1300 nM
same,TGI,COLO 205 colon,2590 nM
same,GI50,OVCAR-5 ovarian,1400 nM
same,TGI,OVCAR-5 ovarian,3330 nM
same,GI50,HS 578T breast,1650 nM
same,TGI,HS 578T breast,3110 nM
same,GI50,NCI/ADR-RES ovarian,1990 nM
same,TGI,NCI/ADR-RES ovarian,4430 nM
same,GI50,OVCAR-3 ovarian,1390 nM
same,TGI,OVCAR-3 ovarian,2930 nM
same,GI50,SF-268 CNS,1710 nM
same,TGI,SF-268 CNS,3260 nM
same,GI50,SF-539 CNS,2040 nM
same,TGI,SF-539 CNS,4760 nM
same,GI50,SK-MEL-28 melanoma,2370 nM
same,TGI,SK-MEL-28 melanoma,8160 nM
same,GI50,SN12C renal,1530 nM
same,TGI,SN12C renal,2900 nM
same,GI50,LOX IMVI melanoma,1900 nM
same,TGI,LOX IMVI melanoma,3450 nM
same,GI50,SK-MEL-5 melanoma,1560 nM
same,TGI,SK-MEL-5 melanoma,6100 nM
same,GI50,MDA-MB-468 breast,1640 nM
same,TGI,MDA-MB-468 breast,3650 nM
same,GI50,HCT-15 colon,1460 nM
same,TGI,HCT-15 colon,2820 nM
same,GI50,T-47D breast,1900 nM
same,TGI,T-47D breast,4050 nM
same,GI50,BT-549 breast,1950 nM
same,TGI,BT-549 breast,3460 nM
same,GI50,SR leukemia,1230 nM
same,TGI,SR leukemia,2510 nM
same,GI50,KM12 colon,40.8 nM
same,TGI,KM12 colon,1010 nM
same,GI50,DU-145 prostate,1470 nM
same,TGI,DU-145 prostate,3040 nM
same,GI50,RXF 393 renal,2930 nM
same,TGI,RXF 393 renal,8110 nM
same,GI50,M14 melanoma,3420 nM
same,TGI,M14 melanoma,14300 nM
same,GI50,MDA-MB-435 melanoma,1530 nM
same,TGI,MDA-MB-435 melanoma,4460 nM
same,GI50,OVCAR-4 ovarian,4220 nM
same,TGI,OVCAR-4 ovarian,17200 nM
same,GI50,ACHN renal,2630 nM
same,TGI,ACHN renal,8820 nM
same,GI50,CCRF-CEM leukemia,1580 nM
same,TGI,CCRF-CEM leukemia,2960 nM
same,GI50,SK-MEL-2 melanoma,3880 nM
same,TGI,SK-MEL-2 melanoma,5810 nM
same,GI50,K-562 leukemia,1370 nM
same,TGI,K-562 leukemia,2770 nM
same,GI50,PC-3 prostate,1450 nM
same,TGI,PC-3 prostate,2790 nM
same,GI50,HOP-62 NSCLC,1550 nM
same,TGI,HOP-62 NSCLC,2950 nM
same,GI50,HCC-2998 colon,1280 nM
same,TGI,HCC-2998 colon,2580 nM
same,GI50,CAKI-1 renal,2460 nM
same,TGI,CAKI-1 renal,9910 nM
same,GI50,TK-10 renal,1500 nM
same,TGI,TK-10 renal,3140 nM
same,GI50,NCI-H226 lung,1480 nM
same,TGI,NCI-H226 lung,8440 nM

# — PubChem BioAssay (NCI)
